# Experimental data reported in publication PMC8416020 (eLife, 2021).
# “And” between values parts separate entries of the source, which are not always exact repeats. Identical values can stand only once. Like-named read-outs stand apart in the source and are kept apart here.
# T1: GHSR (Homo sapiens, UniProt Q92847)
# T1 chain: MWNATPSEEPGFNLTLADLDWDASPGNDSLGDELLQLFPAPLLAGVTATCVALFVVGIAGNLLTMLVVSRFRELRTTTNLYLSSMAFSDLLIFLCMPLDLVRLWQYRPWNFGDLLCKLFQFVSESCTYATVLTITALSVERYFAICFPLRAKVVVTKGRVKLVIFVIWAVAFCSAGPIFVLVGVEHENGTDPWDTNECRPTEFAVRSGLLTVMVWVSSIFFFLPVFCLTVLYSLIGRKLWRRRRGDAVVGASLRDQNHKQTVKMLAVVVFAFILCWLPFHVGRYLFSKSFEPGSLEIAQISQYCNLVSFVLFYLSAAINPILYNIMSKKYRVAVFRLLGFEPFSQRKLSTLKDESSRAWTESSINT
# Assays:
# GHSR [1] = conditions: ref Ferré et al., 2019; cited from earlier work
# Procedure: For labeling with 7H4MC-ethylglycine, the TAG amber codon was introduced at the positions indicated in Figure 1A by site-directed mutagenesis with the pET21a expression vector encoding human GHSR fused to the α5 integrin ([Damian et al., 2012]). The UAA solution was prepared by dissolving 263 mg of 7H4MC-ethylglycine in 10 mL 200 mM KOH solution and filter-sterilizing. […] Cultures were grown at 37°C ...
# GHSR1a (Homo sapiens) = GHSR1a (Homo sapiens) (UniProt Q92847); conditions: cited from earlier work
# GHSR (Homo sapiens) [2] = target: GHSR (Homo sapiens) (UniProt Q92847); conditions: cited from earlier work
# GHSR (Homo sapiens) [3] = target: GHSR (Homo sapiens) (UniProt Q92847); assay: FRET; conditions: cited from earlier work
# GHSR (Homo sapiens) [4] = target: GHSR (Homo sapiens) (UniProt Q92847); assay: 125I-ghrelin radioligand binding; conditions: cited from earlier work
# [5] = tested on: GHSR labeled with 7H4MC-ethylglycine at S315^7.45; assay: Hydration parameter H from 7H4MC fluorescence emission; type: biochemical, human; conditions: ligand 10 µM, POPC:POPG nanodiscs, 15°C, ex 320 nm
# Description: (§1) We then investigated whether the fluorescence properties of 7H4MC-ethylglycine could report on the local hydration features of GHSR. To this end, we analyzed the 7H4MC emission profile for each of the positions considered. An excitation wavelength of 320 nm was systematically used to excite the neutral form of the fluorophore ([Amaro et al., 2015]). The emission spectra were deconvoluted into their separate components using the procedure initially described ([Amaro et al., 2015]). A hydration parameter H was then determined that corresponded to the sum of the contributions of the anionic and tautomer forms. This parameter is an indicator of the extent of hydration at the position considered, as the higher the H parameter the higher local hydration ([Amaro et al., 2015]). A difference in the H parameter inferred for the 7H4MC probe at the different positions of the apo GHSR was observed depending on the position considered (Figure 2—figure supplement 1, 2).
# (§2) Figure 2. Local hydration of growth hormone secretagogue receptor (GHSR) as a function of ligands. […] All ligands were used at a 10 µM concentration. In all cases, the data represents the mean value ± SD of three experiments. Statistical analyses are provided in […]—figure supplement 2 and 4. Figure 2—source data 1. H parameter for GHSR and its mutants. Figure 2—figure supplement 1. Emission spectra of L-(7-hydroxycoumarin-4-yl) (7H4MC)-ethylglycine incorporated into isolated growth hormone secretagogue receptor (GHSR). The spectra were recorded in the absence of ligand. The labeling positions are given in a snake-like plot of GHSR ([Shiimura et al., 2020]) (A) (red: positions deleterious to GHSR function; green: positions considered in this work), and then indicated in each panel (B–F). The excitation wavelength was set to 320 nm with an emission intensity recorded between 340 and 600 nm. The gray curve represents the experimental emission spectrum (exp). The red, blue, green, and magenta spectra represent the decomposition of the experimental spectrum into its neutral (N), complexed (C), anionic (A), and tautomeric (T) components, respectively. The orange curve (fit) corresponds to sum of the individual N, C, A, and T curves. Figure 2—figure supplement 1—source data 1. 7-H4MC emission intensity of the apo GHSR mutants. [drawing 7] Figure 2—figure supplement 2. Statistical analysis of the data in Figure 2. […] Data is from Figure 2. […] Structure of the ligands used throughout this work. [drawing 9] Figure 2—figure supplement 4. Statistical analysis of the data in Figure 2. The left panels show the hydration parameter for each of the mutants in the absence or in the presence of ligands. Data are from Figure 2. The right panels show the mean difference between the apo and the ligand-loaded states for each of the mutants with multiplicity-adjusted 95% confidence intervals. [drawing 10] Figure 2—figure supplement 5. Emission spectra of L-(7-hydroxycoumarin-4-yl) (7H4MC)-ethylglycine incorporated at position 5.58 of growth hormone secretagogue receptor (GHSR) in the presence of pharmacologically distinct ligands or phosphatidylinositol-4,5-bisphosphate (PIP2). […] The excitation wavelength was set to 320 nm with an emission intensity recorded between 340 and 600 nm. The black curve represents the experimental emission spectrum (exp). The red one (fit) corresponds to sum of the individual curves after decomposition of the experimental spectrum into its neutral, complexed, anionic, and tautomeric components. Figure 2—figure supplement 5—source data 1. 7-H4MC emission intensity of the GHSR 5.58 mutant in the presence of ligands. [drawing 11] Figure 2—figure supplement 6. […]
# [6] = tested on: GHSR labeled with 7H4MC-ethylglycine at V268^6.40; assay: as above; type: biochemical, human; conditions: 6.4, ligand 10 µM, POPC:POPG nanodiscs, 15°C, ex 320 nm
# Description: as §1, §2
# [7] = tested on: GHSR labeled with 7H4MC-ethylglycine at I134^3.43; assay: as above; type: biochemical, human; conditions: ligand 10 µM, POPC:POPG nanodiscs, 15°C, ex 320 nm
# Description: as §1, §2
# [8] = tested on: GHSR labeled with 7H4MC-ethylglycine at F272^6.44; assay: as above; type: biochemical, human; conditions: for H parameter: 6.44, ligand 10 µM, POPC:POPG nanodiscs, 15°C, ex 320 nm
# Description: as §1, §2
# [9] = tested on: GHSR labeled with 7H4MC-ethylglycine at Y232^5.58; assay: as above; type: biochemical, human; conditions: for H parameter: 5.58, ligand 10 µM, POPC:POPG nanodiscs, 15°C, ex 320 nm
# Description: as §1, §2
# 7H4MC-labeled GHSR = assay: Hydration parameter H from 7H4MC fluorescence emission, several positions together; type: biochemical, human; conditions: any of the positions considered; saturating ligand (10 µM)
# Description: as §1
# Figure 2. Local hydration of growth hormone secretagogue receptor (GHSR) as a function of ligands. […] All ligands were used at a 10 µM concentration. […] The spectra were recorded in the absence of ligand. […] The excitation wavelength was set to 320 nm with an emission intensity recorded between 340 and 600 nm. […] The excitation wavelength was set to 320 nm with an emission intensity recorded between 340 and 600 nm. […]
# isolated GHSR = conditions: ref Mary et al., 2012; Damian et al., 2015; cited from earlier work
# Description: We then used 7H4MC fluorescence to monitor the impact of ligand binding on the hydration pattern of GHSR.
# GHSR [10] = conditions: ref M'Kadmi et al., 2015; cited from earlier work
# neurotensin receptor 1 = conditions: ref Yen et al., 2018; cited from earlier work
# Description: (§3) In addition to ligands, other components in the receptor environment allosterically impact on GPCR activation and conformational dynamics. […] Among the lipids reported to affect GPCR signaling such as cholesterol ([Casiraghi et al., 2016]; [Zocher et al., 2012]) or charged phospholipids ([Strohman et al., 2019]; [Daw ...
# β1-adrenergic receptor = conditions: ref Yen et al., 2018; cited from earlier work
# Description: as §3
# adenosine A2a receptor = conditions: ref Yen et al., 2018; cited from earlier work
# Description: as §3
# ghrelin receptor = conditions: ref Damian et al., 2021; cited from earlier work
# Description: as §3
# GHSR [11] = target: T1, GHSR; assay: FRET
# [12] = saturating ligand (10 µM), vs apo
# [13] = 2.5% PIP2 in nanodiscs, 10 µM ghrelin
Molecule,H parameter ([5]; replicate 1),H parameter ([5]; replicate 2),H parameter ([5]; replicate 3),H parameter ([6]; replicate 1),H parameter ([6]; replicate 2),H parameter ([6]; replicate 3),H parameter ([7]; replicate 1),H parameter ([7]; replicate 2),H parameter ([7]; replicate 3),H parameter ([8]; replicate 1),H parameter ([8]; replicate 2),H parameter ([8]; replicate 3),H parameter ([9]; replicate 1),H parameter ([9]; replicate 2),H parameter ([9]; replicate 3),pharmacological class (GHSR [10]),also measured
JMV2959,–,–,–,–,–,–,–,–,–,–,–,–,–,–,–,–,pharmacological class (affinity chromatography ligands) (GHSR [1]): antagonist
ghrelin (from UniProt Q9UBU3),–,–,–,–,–,–,–,–,–,–,–,–,–,–,–,–,Kd (GHSR1a (Homo sapiens)): 0.4 nM; Kd (GHSR (Homo sapiens) [2]): 12.5 nM; Ki (GHSR (Homo sapiens) [3]): 4.6 nM; Kd (GHSR (Homo sapiens) [4]): 4.4 nM and 2.3 nM
COc1ccc(Cn2c(CCc3c[nH]c4ccccc34)nnc2C(Cc2c[nH]c3ccccc23)NC(=O)c2ccccn2)c(OC)c1 (stereo not shown) [JMV3011],21.2,22.69,23.47,64.53,63.48,65.36,62.25,63.97,62.73,34.06,36.74,35.98,24.19,26.01,26.56,neutral antagonist,change in the hydration parameter upon binding (7H4MC-labeled GHSR): not accompanied by a measurable change in the hydration parameter; change in the conformation of isolated GHSR (isolated GHSR): not associated with any change in the conformation of isolated GHSR
COc1ccc(Cn2c(CCc3ccccc3)nnc2[C@@H](Cc2c[nH]c3ccccc23)NC(=O)c2ccccn2)c(OC)c1 [JMV3002],21.56,20.44,18.97,66.83,65.42,67.29,67.89,65.22,66.89,24.24,22.63,23.15,26.59,27.63,28.26,Gq-biased partial agonist,"change in the hydration parameter at position 6.44 upon binding [8, 12]: decrease in the hydration parameter at position 6.44; change in the hydration parameter at position 5.58 upon binding [9, 12]: no change was observed for the probe at position 5.58; Gi activation and arrestin recruitment (GHSR [10]): triggers neither Gi activation nor arrestin recruitment"
"phosphatidylinositol-4,5-bisphosphate [PIP2]",–,–,–,–,–,–,–,–,–,–,–,–,–,–,–,–,"effect of adding PIP2 on the H parameter for position 6.44 [8, 13]: decreased that for position 6.44; effect of adding PIP2 on the H parameter for position 5.58 [9, 13]: increased the H parameter for position 5.58; stabilization of the receptor:G protein complex (neurotensin receptor 1): stabilize the receptor:G protein complex; stabilization of the receptor:G protein complex (β1-adrenergic receptor): stabilize the receptor:G protein complex; stabilization of the receptor:G protein complex (adenosine A2a receptor): stabilize the receptor:G protein complex; effect on ghrelin signaling (ghrelin receptor): allosteric regulator of ghrelin signaling"
GSSFLSPEHQRVQQRKESKKPPAKLQP [ghrelin],–,–,–,–,–,–,–,–,–,–,–,–,–,–,–,–,Ki (GHSR [11]): 77 nM
